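Values below derive from 48-hour exposures of cells grown in 96-well plates, with endpoints linearly interpolated between the two concentrations bracketing the appropriate inhibition level. GI50 = concentration required for 50% inhibition of growth. TGI: concentration producing complete growth inhibition.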
Columns and labels:
Experiment in all cases: inhibition of tumour cell growth, NCI panel, 48 h
PC-3 prostate = tested on: PC-3 prostate
COLO 205 colon = tested on: COLO 205 colon
BT-549 breast = tested on: BT-549 breast
UACC-62 melanoma = tested on: UACC-62 melanoma
SF-268 CNS = tested on: SF-268 CNS
OVCAR-5 ovarian = tested on: OVCAR-5 ovarian
HOP-92 NSCLC = tested on: HOP-92 NSCLC
KM12 colon = tested on: KM12 colon
SK-MEL-5 melanoma = tested on: SK-MEL-5 melanoma
U251 CNS = tested on: U251 CNS
MALME-3M melanoma = tested on: MALME-3M melanoma
MDA-MB-231 breast = tested on: MDA-MB-231 breast
MCF7 breast = tested on: MCF7 breast
RXF 393 renal = tested on: RXF 393 renal
CCRF-CEM leukemia = tested on: CCRF-CEM leukemia
SW-620 colon = tested on: SW-620 colon
HCT-116 colon = tested on: HCT-116 colon
HCT-15 colon = tested on: HCT-15 colon
CAKI-1 renal = tested on: CAKI-1 renal
OVCAR-8 ovarian = tested on: OVCAR-8 ovarian
A498 renal = tested on: A498 renal
SK-MEL-2 melanoma = tested on: SK-MEL-2 melanoma
K-562 leukemia = tested on: K-562 leukemia
RPMI-8226 leukemia = tested on: RPMI-8226 leukemia
LOX IMVI melanoma = tested on: LOX IMVI melanoma
SNB-75 CNS = tested on: SNB-75 CNS
NCI/ADR-RES ovarian = tested on: NCI/ADR-RES ovarian
NCI-H460 lung = tested on: NCI-H460 lung
HCC-2998 colon = tested on: HCC-2998 colon
NCI-H522 lung = tested on: NCI-H522 lung
UACC-257 melanoma = tested on: UACC-257 melanoma
OVCAR-4 ovarian = tested on: OVCAR-4 ovarian
EKVX NSCLC = tested on: EKVX NSCLC
TK-10 renal = tested on: TK-10 renal
SF-539 CNS = tested on: SF-539 CNS
SK-MEL-28 melanoma = tested on: SK-MEL-28 melanoma
SN12C renal = tested on: SN12C renal
SR leukemia = tested on: SR leukemia
SF-295 CNS = tested on: SF-295 CNS
HT29 colon = tested on: HT29 colon
UO-31 renal = tested on: UO-31 renal
SK-OV-3 ovarian = tested on: SK-OV-3 ovarian
HL-60(TB) leukemia = tested on: HL-60(TB) leukemia
DU-145 prostate = tested on: DU-145 prostate
T-47D breast = tested on: T-47D breast
ACHN renal = tested on: ACHN renal
MOLT-4 leukemia = tested on: MOLT-4 leukemia
IGROV1 ovarian = tested on: IGROV1 ovarian
786-0 renal = tested on: 786-0 renal
HS 578T breast = tested on: HS 578T breast
MDA-MB-435 = tested on: MDA-MB-435
HOP-62 NSCLC = tested on: HOP-62 NSCLC
SNB-19 CNS = tested on: SNB-19 CNS
NCI-H226 lung = tested on: NCI-H226 lung
M14 melanoma = tested on: M14 melanoma
A549 NSCLC = tested on: A549 NSCLC

Compound: c1n[nH]cc1-c1nc2ccc3[nH]ncc3c2c2c1CCCC2
- GI50 (PC-3 prostate): 2370 nM
- TGI (PC-3 prostate): 11600 nM
- GI50 (COLO 205 colon): 1310 nM
- TGI (COLO 205 colon): 4470 nM
- GI50 (BT-549 breast): 1220 nM
- TGI (BT-549 breast): 2490 nM
- GI50 (UACC-62 melanoma): 1060 nM
- TGI (UACC-62 melanoma): 3250 nM
- GI50 (SF-268 CNS): 1950 nM
- TGI (SF-268 CNS): 4630 nM
- GI50 (OVCAR-5 ovarian): 2710 nM
- TGI (OVCAR-5 ovarian): 17900 nM
- GI50 (HOP-92 NSCLC): 2240 nM
- TGI (HOP-92 NSCLC): 6310 nM
- GI50 (KM12 colon): 2910 nM
- TGI (KM12 colon): 8900 nM
- GI50 (SK-MEL-5 melanoma): 1280 nM
- TGI (SK-MEL-5 melanoma): 3220 nM
- GI50 (U251 CNS): 2060 nM
- TGI (U251 CNS): 12100 nM
- GI50 (MALME-3M melanoma): 1560 nM
- TGI (MALME-3M melanoma): 4760 nM
- GI50 (MDA-MB-231 breast): 1960 nM
- TGI (MDA-MB-231 breast): 12000 nM
- GI50 (MCF7 breast): 2420 nM
- TGI (MCF7 breast): 11700 nM
- GI50 (RXF 393 renal): 1170 nM
- TGI (RXF 393 renal): 2770 nM
- GI50 (CCRF-CEM leukemia): 2420 nM
- TGI (CCRF-CEM leukemia): > 100000 nM
- GI50 (SW-620 colon): 924 nM
- TGI (SW-620 colon): 6540 nM
- GI50 (HCT-116 colon): 635 nM
- TGI (HCT-116 colon): 7920 nM
- GI50 (HCT-15 colon): 1380 nM
- TGI (HCT-15 colon): 14000 nM
- GI50 (CAKI-1 renal): 511 nM
- TGI (CAKI-1 renal): 10400 nM
- GI50 (OVCAR-8 ovarian): 1640 nM
- TGI (OVCAR-8 ovarian): 4380 nM
- GI50 (A498 renal): 405 nM
- TGI (A498 renal): 1920 nM
- GI50 (SK-MEL-2 melanoma): 1260 nM
- TGI (SK-MEL-2 melanoma): 3120 nM
- GI50 (K-562 leukemia): 3010 nM
- TGI (K-562 leukemia): > 100000 nM
- GI50 (RPMI-8226 leukemia): 1510 nM
- TGI (RPMI-8226 leukemia): 4940 nM
- GI50 (LOX IMVI melanoma): 1150 nM
- TGI (LOX IMVI melanoma): 2910 nM
- GI50 (SNB-75 CNS): 1310 nM
- TGI (SNB-75 CNS): 2880 nM
- GI50 (NCI/ADR-RES ovarian): 2100 nM
- TGI (NCI/ADR-RES ovarian): 6050 nM
- GI50 (NCI-H460 lung): 783 nM
- TGI (NCI-H460 lung): 4850 nM
- GI50 (HCC-2998 colon): 1640 nM
- TGI (HCC-2998 colon): 7310 nM
- GI50 (NCI-H522 lung): 835 nM
- TGI (NCI-H522 lung): 2770 nM
- GI50 (UACC-257 melanoma): 1860 nM
- TGI (UACC-257 melanoma): 6640 nM
- GI50 (OVCAR-4 ovarian): 2350 nM
- TGI (OVCAR-4 ovarian): 7930 nM
- GI50 (EKVX NSCLC): 887 nM
- TGI (EKVX NSCLC): 3330 nM
- GI50 (TK-10 renal): 766 nM
- TGI (TK-10 renal): 8200 nM
- GI50 (SF-539 CNS): 1380 nM
- TGI (SF-539 CNS): 3090 nM
- GI50 (SK-MEL-28 melanoma): 1590 nM
- TGI (SK-MEL-28 melanoma): 4510 nM
- GI50 (SN12C renal): 1840 nM
- TGI (SN12C renal): 7540 nM
- GI50 (SR leukemia): 287 nM
- TGI (SR leukemia): 5450 nM
- GI50 (SF-295 CNS): 2110 nM
- TGI (SF-295 CNS): 8490 nM
- GI50 (HT29 colon): 1670 nM
- TGI (HT29 colon): 10900 nM
- GI50 (UO-31 renal): 1540 nM
- TGI (UO-31 renal): 7650 nM
- GI50 (SK-OV-3 ovarian): 680 nM
- TGI (SK-OV-3 ovarian): 11600 nM
- GI50 (HL-60(TB) leukemia): 1490 nM
- TGI (HL-60(TB) leukemia): 5590 nM
- GI50 (DU-145 prostate): 1710 nM
- TGI (DU-145 prostate): 11600 nM
- GI50 (T-47D breast): 2210 nM
- TGI (T-47D breast): 8180 nM
- GI50 (ACHN renal): 560 nM
- TGI (ACHN renal): 10300 nM
- GI50 (MOLT-4 leukemia): 1990 nM
- TGI (MOLT-4 leukemia): 7880 nM
- GI50 (IGROV1 ovarian): 1350 nM
- TGI (IGROV1 ovarian): 8150 nM
- GI50 (786-0 renal): 1410 nM
- TGI (786-0 renal): 2720 nM
- GI50 (HS 578T breast): 914 nM
- TGI (HS 578T breast): 4020 nM
- GI50 (MDA-MB-435): 1400 nM
- TGI (MDA-MB-435): 4380 nM
- GI50 (HOP-62 NSCLC): 1750 nM
- TGI (HOP-62 NSCLC): 7680 nM
- GI50 (SNB-19 CNS): 2780 nM
- TGI (SNB-19 CNS): 9850 nM
- GI50 (NCI-H226 lung): 1280 nM
- TGI (NCI-H226 lung): 3650 nM
- GI50 (M14 melanoma): 1110 nM
- TGI (M14 melanoma): 3360 nM
- GI50 (A549 NSCLC): 2010 nM
- TGI (A549 NSCLC): 12300 nM

Reference: PubChem BioAssay (NCI)
